Measured values: PubChem BioAssay AID222 (DTP/NCI, 2004)
Values joined by “and” are separate entries in the source; they are usually repeats but may differ in a detail not shown here. Identical values can stand only once. Inconclusive results and toxic doses are left out. Rule for the calls: active = survival T/C of 150% or more; inactive = T/C below 125% in these data.

Test system: C57BL/6 mice, intracerebral ependymoblastoma, median survival T/C
Experiment: NCI In Vivo Anticancer Drug Screen. Data for tumor model Ependymoblastoma (intracerebral) in C57BL/6 mice
Details: endpoint: median survival time, higher = longer survival
Description: The antitumor activity of compounds was measured in mice bearing transplantable tumors. Survival or tumor size were measured and the results are expressed as the measurement made in the treated group (T) divided by the measurement made in the vehicle treated control group (C). The tumor model used in this assay is Ependymoblastoma (intracerebral) in C57BL/6 mice

Measured: T/C

COc1cccc2c1C(=O)c1c(O)c3c(c(O)c1C2=O)C[C@@](O)(C(=O)CO)C[C@@H]3OC1CC(N)C(O)C(C)O1 (some centres not stated)
inactive: dose: 0.12 mg/kg/injection, schedule: Q01DX001 (ip), vehicle: saline 96 % of control | dose: 0.25 mg/kg/injection, schedule: Q01DX001 (ip), vehicle: saline 86 % of control | dose: 0.25 mg/kg/injection, schedule: Q01DX005 (ip), vehicle: saline 108 % of control | dose: 0.25 mg/kg/injection, schedule: Q01DX009 (ip), vehicle: saline 107 % of control | dose: 0.25 mg/kg/injection, schedule: Q07DX003 (ip), vehicle: saline 106 % of control | dose: 0.25 mg/kg/injection, schedule: Q## X006 (ip), vehicle: saline 100 % of control | dose: 0.5 mg/kg/injection, schedule: Q01DX001 (ip), vehicle: saline 88 % of control | dose: 0.5 mg/kg/injection, schedule: Q01DX005 (ip), vehicle: saline 108 % of control | dose: 0.5 mg/kg/injection, schedule: Q01DX009 (ip), vehicle: saline 103 % of control | dose: 0.5 mg/kg/injection, schedule: Q## X006 (ip), vehicle: saline 119 % of control | dose: 0.5 mg/kg/injection, schedule: Q#A X002 (ip), vehicle: saline 105 % of control | dose: 1.0 mg/kg/injection, schedule: Q01DX001 (ip), vehicle: saline 96 % of control (2×) and 100 % of control | dose: 1.0 mg/kg/injection, schedule: Q01DX005 (ip), vehicle: saline 110 % of control | dose: 1.0 mg/kg/injection, schedule: Q01DX005 (oral), vehicle: saline 100 % of control | dose: 1.0 mg/kg/injection, schedule: Q07DX003 (ip), vehicle: saline 96 % of control | dose: 1.0 mg/kg/injection, schedule: Q## X006 (ip), vehicle: saline 110 % of control | dose: 1.0 mg/kg/injection, schedule: Q#A X002 (ip), vehicle: saline 97 % of control | dose: 2.0 mg/kg/injection, schedule: Q01DX001 (ip), vehicle: saline 104 % of control and 106 % of control and 111 % of control | dose: 2.0 mg/kg/injection, schedule: Q01DX005 (ip), vehicle: saline 103 % of control | dose: 2.0 mg/kg/injection, schedule: Q07DX003 (ip), vehicle: saline 101 % of control | dose: 2.0 mg/kg/injection, schedule: Q## X006 (ip), vehicle: saline 119 % of control | dose: 2.0 mg/kg/injection, schedule: Q#A X002 (ip), vehicle: saline 93 % of control | dose: 4.0 mg/kg/injection, schedule: Q01DX001 (oral), vehicle: saline 101 % of control and 109 % of control | dose: 4.0 mg/kg/injection, schedule: Q01DX005 (oral), vehicle: saline 94 % of control | dose: 4.0 mg/kg/injection, schedule: Q#A X002 (ip), vehicle: saline 101 % of control and 108 % of control | dose: 8.0 mg/kg/injection, schedule: Q01DX001 (oral), vehicle: saline 92 % of control and 97 % of control | dose: 8.0 mg/kg/injection, schedule: Q01DX005 (oral), vehicle: saline 100 % of control | dose: 8.0 mg/kg/injection, schedule: Q#A X002 (ip), vehicle: saline 97 % of control | dose: 16.0 mg/kg/injection, schedule: Q01DX001 (ip), vehicle: saline 101 % of control | dose: 16.0 mg/kg/injection, schedule: Q01DX001 (oral), vehicle: saline 96 % of control and 98 % of control and 106 % of control | dose: 16.0 mg/kg/injection, schedule: Q#A X002 (ip), vehicle: saline 89 % of control | dose: 32.0 mg/kg/injection, schedule: Q01DX001 (ip), vehicle: saline 100 % of control | dose: 32.0 mg/kg/injection, schedule: Q01DX001 (oral), vehicle: saline 89 % of control and 92 % of control and 109 % of control | dose: 32.0 mg/kg/injection, schedule: Q#A X002 (ip), vehicle: saline 86 % of control | dose: 64.0 mg/kg/injection, schedule: Q01DX001 (oral), vehicle: saline 103 % of control and 107 % of control and 86 % of control | dose: 64.0 mg/kg/injection, schedule: Q#A X002 (ip), vehicle: saline 88 % of control | dose: 128.0 mg/kg/injection, schedule: Q01DX001 (ip), vehicle: saline 88 % of control | dose: 128.0 mg/kg/injection, schedule: Q01DX001 (oral), vehicle: saline 93 % of control and 103 % of control and 107 % of control | dose: 128.0 mg/kg/injection, schedule: Q#A X002 (ip), vehicle: saline 86 % of control | dose: 256.0 mg/kg/injection, schedule: Q01DX001 (oral), vehicle: saline 103 % of control and 111 % of control

CCOC(=O)CC(SP(=S)(OC)OC)C(=O)OCC (configuration not stated)
inactive: dose: 24.0 mg/kg/injection, schedule: Q01DX005 (ip), vehicle: saline with Tween-80 101 % of control and 104 % of control | dose: 45.0 mg/kg/injection, schedule: Q01DX005 (ip), vehicle: saline with Tween-80 101 % of control and 108 % of control | dose: 50.0 mg/kg/injection, schedule: Q01DX005 (ip), vehicle: suspension in saline 102 % of control | dose: 90.0 mg/kg/injection, schedule: Q01DX005 (ip), vehicle: saline with Tween-80 95 % of control and 116 % of control | dose: 100.0 mg/kg/injection, schedule: Q01DX005 (ip), vehicle: suspension in saline 103 % of control | dose: 180.0 mg/kg/injection, schedule: Q01DX005 (ip), vehicle: saline with Tween-80 104 % of control | dose: 200.0 mg/kg/injection, schedule: Q01DX005 (ip), vehicle: suspension in saline 99 % of control
